Columns and labels:
[1] = target: T1, TrkB (Mus musculus, UniProt P15209); test: Immunoblotting of brain lysates from forced swim test mice: TrkB; assay type: in vivo; conditions: 5 mg/kg, 21 days oral, anti-p-TrkB 817, FIG. 35
T1 construct: from tissue; host or cells: mouse brain
Method: To explore whether 4′-DMA-7,8-DHF and 7,8-DHF have any antidepressant effect, a forced swim test (6 minutes, immobility recorded in the last 4 minutes) was conducted after chronic treatment of male C57BL/6J mice (8 mice/group) for 21 days via oral injection.

[2] = target: TrkA (Mus musculus, UniProt Q3UFB7); test: Trk activation in cortical neurons from wild-type and TrkB-null pups: TrkA; assay type: cell-based, mice; parameters: endogenous in cells; host or cells: primary cortical neurons of mouse pups; conditions: FIG. 21
Method: To determine whether 7,8-dihydroxyflavone can selectively activate TrkB receptor and prevent neuronal cell death, cortical neurons were prepared from homozygous pups of TrkB+/−mice, which were mated to the same genotype. […] Glutamate nonselectively elicited weak TrkA phosphorylation in both wild-type and TrkB-null neurons (FIG. 21, row 3).

[3] = system: hippocampal neurons; test: Oxygen-Glucose Deprivation (OGD) of hippocampal neurons; assay type: cell-based
Method: To explore whether 7,8-dihydroxyflavone exerts any protective effect on hippocampal neurons in Oxygen-Glucose Deprivation (OGD), primary preparations of neurons were treated with BDNF or various flavone derivatives for 30 minutes prior to OGD.

[4] = target: GST-TrkB ICD (Rattus norvegicus, UniProt Q63604); test: In vitro binding assay with immobilized GST-TrkB ICD on glutathione beads, UV-spectrometry of eluate; conditions: 500 nM, 4° C., 30 minutes, FIG. 17
Method: To further explore the association of 7,8-dihydroxyflavone and the TrkB receptor, an in vitro binding assay was performed. Increasing volumes of GST-TrkB ECD and GST-TrkB ICD were bound to glutathione beads to a total of 250 uL, and 500 nM 7,8-dihydroxyflavone in 250 μl (20% DMSO/80% PBS) was incubated with the beads in the column at 4° C. for 30 minutes. After the incubation, the elute fractions were collected and the concentration of eluted 7,8-dihydroxyflavone was analyzed by UV-spectrometry at a wavelength of 410 nm.

[5] = target: T1, TrkB; test: Time course of TrkB activation in mouse brain; assay type: in vivo, C57BL/6J mice; conditions: 1 mg/kg, oral injection, FIG. 28
Method: To compare the stimulatory effect on TrkB receptor in mouse brain, 1 mg/kg of these compounds was injected into C57BL/6J mice and monitored TrkB activation at different time points (see FIG. 28). […] In contrast, 7,8-DHF triggered TrkB activation 2 h after oral injection and peaked at 4 h and TrkB activity progressively faded away. The TrkB activity was demonstrable even at 16 h (FIG. 28).

T1 sequence (P15209 32-821): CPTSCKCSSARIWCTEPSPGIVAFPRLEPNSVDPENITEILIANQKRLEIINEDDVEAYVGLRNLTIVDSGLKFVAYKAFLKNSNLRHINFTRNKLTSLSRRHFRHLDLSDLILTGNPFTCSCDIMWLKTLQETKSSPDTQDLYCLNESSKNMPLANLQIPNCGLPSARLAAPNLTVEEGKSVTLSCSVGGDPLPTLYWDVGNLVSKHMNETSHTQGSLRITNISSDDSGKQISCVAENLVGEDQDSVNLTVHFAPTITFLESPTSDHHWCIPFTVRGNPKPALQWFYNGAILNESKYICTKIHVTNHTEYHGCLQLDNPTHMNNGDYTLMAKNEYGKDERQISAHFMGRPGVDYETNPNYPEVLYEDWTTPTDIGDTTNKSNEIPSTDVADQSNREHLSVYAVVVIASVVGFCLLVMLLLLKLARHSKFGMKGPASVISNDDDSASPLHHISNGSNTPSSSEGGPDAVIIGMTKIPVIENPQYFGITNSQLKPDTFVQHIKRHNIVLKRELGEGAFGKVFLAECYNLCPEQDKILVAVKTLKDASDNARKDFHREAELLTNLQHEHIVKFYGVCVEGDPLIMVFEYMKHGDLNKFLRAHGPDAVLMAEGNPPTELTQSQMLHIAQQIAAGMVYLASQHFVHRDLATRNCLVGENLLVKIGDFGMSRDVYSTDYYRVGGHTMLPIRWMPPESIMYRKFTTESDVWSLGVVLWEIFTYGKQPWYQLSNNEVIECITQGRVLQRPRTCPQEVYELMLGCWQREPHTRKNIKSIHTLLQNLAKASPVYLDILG
GST-TrkB ICD, sequence (Q63604 454-821): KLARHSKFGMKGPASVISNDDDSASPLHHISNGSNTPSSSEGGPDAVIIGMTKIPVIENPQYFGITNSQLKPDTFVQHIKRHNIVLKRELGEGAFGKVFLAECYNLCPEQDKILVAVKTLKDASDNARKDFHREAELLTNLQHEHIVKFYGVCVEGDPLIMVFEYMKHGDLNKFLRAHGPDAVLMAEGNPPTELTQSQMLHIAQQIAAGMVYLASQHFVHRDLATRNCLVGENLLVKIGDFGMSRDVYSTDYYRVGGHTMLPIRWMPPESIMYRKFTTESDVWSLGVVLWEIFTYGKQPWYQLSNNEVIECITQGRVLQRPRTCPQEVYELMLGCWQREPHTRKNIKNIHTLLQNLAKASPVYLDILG
TrkA, sequence (Q3UFB7 34-799): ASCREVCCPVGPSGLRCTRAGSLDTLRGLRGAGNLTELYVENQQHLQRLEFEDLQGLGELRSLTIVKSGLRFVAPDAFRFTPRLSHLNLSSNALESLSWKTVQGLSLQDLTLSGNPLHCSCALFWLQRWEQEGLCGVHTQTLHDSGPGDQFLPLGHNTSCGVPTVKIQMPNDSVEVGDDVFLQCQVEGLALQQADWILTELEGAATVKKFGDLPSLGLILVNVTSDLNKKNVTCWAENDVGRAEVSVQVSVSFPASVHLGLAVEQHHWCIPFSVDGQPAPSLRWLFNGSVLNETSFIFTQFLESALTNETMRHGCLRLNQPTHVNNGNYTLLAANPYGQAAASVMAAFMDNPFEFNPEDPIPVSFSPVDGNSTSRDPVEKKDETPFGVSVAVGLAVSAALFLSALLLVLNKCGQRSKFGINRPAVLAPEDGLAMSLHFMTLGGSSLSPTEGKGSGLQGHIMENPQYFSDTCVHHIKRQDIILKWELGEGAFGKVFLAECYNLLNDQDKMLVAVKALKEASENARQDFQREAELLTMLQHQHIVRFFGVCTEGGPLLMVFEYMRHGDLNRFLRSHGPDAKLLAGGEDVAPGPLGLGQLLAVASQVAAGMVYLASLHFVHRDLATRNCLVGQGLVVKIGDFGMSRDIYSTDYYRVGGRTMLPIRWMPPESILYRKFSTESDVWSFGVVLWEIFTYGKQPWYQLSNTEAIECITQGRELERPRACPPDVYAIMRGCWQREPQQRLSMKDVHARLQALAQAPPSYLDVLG

With O=c1cc(-c2ccccc2)oc2c(O)c(O)ccc12 [7,8-dihydroxyflavone] the “TrkB activation in mouse brain” value [1] was “provoke TrkB”, the TrkA activation [2] was “not TrkA receptor” and the “protective effect in OGD” value ([3]; 30 minutes prior to OGD, apoptotic analysis in 3 hours, FIG. 7 left) was “most potent protective effects among the compounds”. The “titration assay of protection in OGD” value ([3]; FIG. 7 right) was “protects neurons in a dose-dependent manner”, the “concentration of eluted compound as GST-TrkB ICD volumes increased” value [4] was “remained constant” and the “TrkB activity at 16 h” value [5] was “demonstrable”. For the same compound, the “time at which TrkB activation was elicited” value [5] was 2 h and the “time at which TrkB activity peaked” value [5] was 4 h.
